The target of assay [1] is T1, Tie-2 (Homo sapiens, UniProt Q02763).
T1 construct: made in house; host or cells: Hi5 insect cells
As to the kind of experiment: Tie-2 kinase assay. It is filed as biochemical. To be noted: 10 μM ATP, 20 min. As to the method: Recombinant Tie-2 protein was expressed in Hi5 insect cells and then purified. The kinase substrate used was the biotinylated peptide having the amino acid sequence biotin-EPKDDAYPLYSDFG, which was purchased from Biosynthan. Tie-2 [concentration in the mixture 5 ng/μl] was preincubated in the presence of 100 μM ATP in assay buffer [50 mM HEPES pH 7.0, 0.5 mM MgCl2, 1.0 mM dithiothreitol, 0.01% NP40, 1 tablet/2.5 ml complete protease inhibitor (from Roche)] at 22° C. for 20 min. The enzyme reaction [0.5 ng/μl Tie-2 in the test mixture, test volume 5 μl] then took place in the presence of various concentrations of test substances (0 μM, and 10 measurement points within the range 0.001-20 μM in duplicate) in assay buffer with 10 μM ATP, 1.0 μM substrate peptide biotin-EPKDDAYPLYSDFG, 1.0% dimethyl sulphoxide for 20 min. The reaction was stopped by adding 5 μl of an EDTA/detection solution [50 mM HEPES pH 7.5, 89 mM EDTA, 0.28% BSA, 0.2 μM streptavidin-XLent (from CisBio), 2 nM PT66-Eu (from PerkinElmer)]. The fluorescence emission at 620 nm and 665 nm after excitation with light of the wavelength 350 nm was measured in a Rubystar HTRF instrument from BMG Labsystems.
The measured data (ratio of emission 665 divided by emission 620 multiplied by 10 000) were normalized to 0% inhibition (enzyme reaction without inhibitor) and 100% inhibition (all assay components apart from enzyme). The IC50 values were determined by means of a 4-parameter fit using the company's own software.

Assay [2] deals with T2, c-kit (Homo sapiens, UniProt P10721).
T2 construct: made in house; host or cells: E. coli
T2 sequence (P10721 26-976): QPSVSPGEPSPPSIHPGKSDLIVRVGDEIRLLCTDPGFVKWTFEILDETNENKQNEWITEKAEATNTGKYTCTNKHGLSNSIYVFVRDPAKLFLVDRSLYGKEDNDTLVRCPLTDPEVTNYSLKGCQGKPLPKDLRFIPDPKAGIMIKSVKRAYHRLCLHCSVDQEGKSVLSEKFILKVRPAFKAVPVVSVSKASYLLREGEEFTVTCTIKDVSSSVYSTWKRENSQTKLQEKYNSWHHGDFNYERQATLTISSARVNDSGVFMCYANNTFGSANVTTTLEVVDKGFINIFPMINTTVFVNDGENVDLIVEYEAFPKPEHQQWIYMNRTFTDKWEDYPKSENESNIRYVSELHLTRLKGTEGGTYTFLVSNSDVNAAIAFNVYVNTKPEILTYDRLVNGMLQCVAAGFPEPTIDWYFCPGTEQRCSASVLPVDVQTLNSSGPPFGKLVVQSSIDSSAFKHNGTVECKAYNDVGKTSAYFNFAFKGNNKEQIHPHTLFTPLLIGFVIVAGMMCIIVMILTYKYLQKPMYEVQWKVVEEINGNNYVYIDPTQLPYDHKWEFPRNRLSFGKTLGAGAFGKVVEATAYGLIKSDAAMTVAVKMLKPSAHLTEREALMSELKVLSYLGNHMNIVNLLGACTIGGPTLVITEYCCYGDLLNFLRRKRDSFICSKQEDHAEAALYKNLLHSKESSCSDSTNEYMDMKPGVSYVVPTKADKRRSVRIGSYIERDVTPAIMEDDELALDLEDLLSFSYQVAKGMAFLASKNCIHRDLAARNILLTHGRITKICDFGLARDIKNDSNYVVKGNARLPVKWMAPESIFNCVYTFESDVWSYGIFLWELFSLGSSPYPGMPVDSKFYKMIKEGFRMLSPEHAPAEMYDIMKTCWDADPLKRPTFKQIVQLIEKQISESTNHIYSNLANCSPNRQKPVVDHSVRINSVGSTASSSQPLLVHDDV
The assay is described as follows: c-Kit kinase assay. The format is biochemical. As to conditions: 10 μM ATP, 22° C., 30 min. As to the method: Recombinant c-kit protein was expressed in E. coli and then purified. The kinase substrate used was the biotinylated peptide having the amino acid sequence biotin-poly GluTyr, which was purchased from CisBio.
C-kit [test volume 5 μl] was incubated in the presence of various concentrations of test substances (0 μM, and 10 measurement points within the range 0.001-20 μM in duplicate) in assay buffer [50 mM HEPES pH 7.0, 1.0 mM MgCl2, […], 0.1 mM Na ortho-vanadate, 1.0 mM dithiothreitol, 0.001% NP40, 10 μM ATP, 0.03 μM substrate peptide biotin-poly GluTyr, 1.0% dimethyl sulphoxide] at 22° C. for 30 min. The reaction was stopped by adding 5 μl of an EDTA/detection solution [50 mM HEPES pH 7.5, 80 mM EDTA, 0.2% BSA, 0.1 μM streptavidin-XLent (from CisBio), 1 nM PT66-Eu (from PerkinElmer)]. The fluorescence emission at 620 nm and 665 nm after excitation with light of the wavelength 350 nm was measured in a Rubystar HTRF instrument from BMG Labsystems. The measured data (ratio of emission 665 divided by emission 620 multiplied by 10 000) were normalized to 0% inhibition (enzyme reaction without inhibitor) and 100% inhibition (all assay components apart from enzyme). The IC50 values were determined by means of a 4-parameter fit using the company's own software.

T1 sequence (Q02763 23-1124, species assumed): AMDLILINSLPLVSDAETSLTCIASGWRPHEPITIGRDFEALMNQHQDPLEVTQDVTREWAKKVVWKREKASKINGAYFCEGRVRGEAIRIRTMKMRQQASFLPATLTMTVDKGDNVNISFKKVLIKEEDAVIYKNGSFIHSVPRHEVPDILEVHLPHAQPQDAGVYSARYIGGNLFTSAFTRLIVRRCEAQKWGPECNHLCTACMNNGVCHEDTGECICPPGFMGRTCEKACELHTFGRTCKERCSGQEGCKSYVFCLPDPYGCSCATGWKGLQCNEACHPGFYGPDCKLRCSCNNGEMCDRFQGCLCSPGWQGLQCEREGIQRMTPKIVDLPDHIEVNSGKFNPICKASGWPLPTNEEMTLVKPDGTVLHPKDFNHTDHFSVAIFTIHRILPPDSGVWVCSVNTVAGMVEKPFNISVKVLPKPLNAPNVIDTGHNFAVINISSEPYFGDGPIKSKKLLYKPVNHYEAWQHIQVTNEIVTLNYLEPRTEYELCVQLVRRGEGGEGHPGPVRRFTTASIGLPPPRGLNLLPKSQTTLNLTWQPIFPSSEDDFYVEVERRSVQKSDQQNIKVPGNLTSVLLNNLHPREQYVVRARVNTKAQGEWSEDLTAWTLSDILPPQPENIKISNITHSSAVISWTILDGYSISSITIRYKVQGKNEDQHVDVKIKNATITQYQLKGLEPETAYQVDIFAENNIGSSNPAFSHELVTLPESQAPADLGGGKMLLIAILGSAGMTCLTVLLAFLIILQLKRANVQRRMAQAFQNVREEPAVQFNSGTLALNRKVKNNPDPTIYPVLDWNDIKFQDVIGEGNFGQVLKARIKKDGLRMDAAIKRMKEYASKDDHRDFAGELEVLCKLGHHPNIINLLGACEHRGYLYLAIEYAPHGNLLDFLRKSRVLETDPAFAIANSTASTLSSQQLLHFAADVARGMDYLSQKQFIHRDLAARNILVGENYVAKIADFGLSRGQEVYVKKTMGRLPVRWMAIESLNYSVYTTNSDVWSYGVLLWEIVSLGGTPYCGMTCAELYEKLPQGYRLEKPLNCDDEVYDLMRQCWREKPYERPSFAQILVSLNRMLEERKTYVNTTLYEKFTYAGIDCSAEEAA

Regarding `CCOC(=O)N=S(C)(=O)c1ccc2cc1NCCCCNc1nc(ncc1Br)N2` (racemic) [Example 1, (RS)—S-[1^5-Bromo-2,4,9-triaza-1(2,4)-pyrimidina-3(1,3)-benzenacyclononaphan-3^4-yl]-N-(ethoxycarbonyl)-S-methylsulphoximide], the IC50 is 2920 nM in assay [1] and 29 nM in assay [2].

With `CCNC(=O)N=S(C)(=O)c1ccc2cc1NCCCCNc1nc(ncc1Br)N2` (racemic) [Example 6, (RS)—S-[1^5-Bromo-2,4,9-triaza-1(2,4)-pyrimidina-3(1,3)-benzenacyclononaphan-3^4-yl]-N-(ethylcarbamoyl)-S-methylsulphoximide], the concentration for half-maximal inhibition (IC50) is 1410 nM in assay [1] and 14 nM in assay [2].

For `C[Si](C)(C)CCS(=O)(=O)N=S(C)(=O)c1ccc2cc1OCCCCNc1nc(ncc1Br)N2` (racemic) [Example 9, (RS)—S-[1^5-Bromo-4-oxa-2,9-diaza-1(2,4)-pyrimidina-3(1,3)-benzenacyclononaphan-3^4-yl]-S-methyl-N-[2-(trimethylsilyl)ethylsulphonyl]sulphoximide], the IC50 in assay [1] is over 10000 nM; in assay [2], over 12500 nM.

On to `CCCS(=O)(=O)N=S(C)(=O)c1ccc2cc1NCCCCNc1nc(ncc1Br)N2` (racemic) [Example 7, (RS)—S-[1^5-Bromo-2,4,9-triaza-1(2,4)-pyrimidina-3(1,3)-benzenacyclononaphan-3^4-yl]-S-methyl-N-(propylsulphonyl)sulphoximide], for which the IC50 is 1700 nM in assay [1] and 17 nM in assay [2].

For `CCCOC(=O)N=S(C)(=O)c1ccc2cc1OCCCCNc1nc(ncc1Br)N2` (racemic) [Example 8, (RS)—S-[1^5-Bromo-4-oxa-2,9-diaza-1(2,4)-pyrimidina-3(1,3)-benzenacyclononaphan-3^4-yl]-S-methyl-N-(propoxycarbonyl)sulphoximide], the IC50 in assay [1] was 17100 nM; in assay [2] it was 357 nM.

As to `CCOC(=O)N=S(C)(=O)c1ccc2cc1NCCCCNc1nc(ncc1Br)N2` (single isomer, unassigned) [Example 2], in assay [2], the IC50 was found to be 46 nM. This counts as double-digit nanomolar.

Turning to `C[Si](C)(C)CCS(=O)(=O)N=S(C)(=O)c1ccc2cc1NCCCCNc1nc(ncc1Br)N2` (racemic) [Example 5, (RS)—S-[1^5-Bromo-2,4,9-triaza-1(2,4)-pyrimidina-3(1,3)-benzenacyclononaphan-3^4-yl]-S-methyl-N-[2-(trimethylsilyl)ethylsulphonyl]sulphoximide], the half-maximal inhibitory concentration (IC50) in assay [2] stood at 164 nM.

For `CCOC(=O)N=S(C)(=O)c1ccc2cc1NCCCCNc1nc(ncc1Br)N2` (single isomer, unassigned) [Example 3], in assay [2], the half-inhibitory concentration (IC50) was 64 nM.

Take `CCOC(=O)N=S(C)(=O)c1ccc2cc1NCCCCNc1nc(ncc1I)N2` (racemic) [Example 4, (RS)—N-(Ethoxycarbonyl)-S-[1^5-iodo-2,4,9-triaza-1(2,4)-pyrimidina-3(1,3)-benzenacyclononaphan-3^4-yl]-S-methylsulphoximide]: in assay [2], the IC50 was found to be 23 nM. Against the preceding compound, the IC50 is about 2.8-fold lower.

The values are drawn from patent US20070191393A1, “Macrocyclic anilinopyrimidines with substituted sulphoximine as selective inhibitors of cell cycle kinases” (priority 2006, published 2007).
